Experimental data: patent EP0782987A1, “INDOLE DERIVATIVES” (KYOWA HAKKO KOGYO CO., LTD., priority 1995, dated 1997)

Tests used:
ovariectomized rats = test: Inhibitory effect on the increase of urinary hydroxyproline excretion by ovariectomy; format: in vivo, female SD strain rats; settings: 10 mg/kg orally once a day for two weeks, hydroxyproline/creatinine molar ratio in 24 hour urine
Description: The inhibitory effect of the compounds of the present application on bone resorption was also determined by their inhibitory effect on the excretion of urinary hydroxyproline which is elevated by ovariectomy of the animals tested, according to the report of Kalu et al. [Bone and Mineral., 14, 175 (1991)].
Test Example 2: Inhibitory effect on the increase of urinary hydroxyproline excretion by ovariectomy
12-weeks-old female SD strain rats (Japan Clea Co., Ltd.) were acclimated for 1 week during which they were given tap water and a standard diet (F2; Funabashi Farmas) ad libitum. The experiment was carried out using the rats weighing 270-310 g. After the animals were subjected to sham operation or bilateral ovariectomy, they were allowed free access to water passed through ion exchange resin instead of tap water, and were housed in individual cages. The test compound (10 mg/kg) was suspended in 0.3% Tween, and the obtained suspension was orally administered to the ovariectomized rats once a day for two weeks starting from the day following ovariectomy (0.5 ml/100 g body weight). 0.3% Tween was similarly administered to sham-operated rats and ovariectomized control rats. After the final administration, the rats were placed in individual metabolic cages and fasted during 24 hours, and urine was collected. The volume of the collected urine was measured and the urine was centrifuged at 3,000 rpm for 15 min at 4°C. The concentration of hydroxyproline in the supernatant was measured by the method of Ikeda et al. [Ann. Rep. Tokyo Metr. Res. Lab. P. H., 36, 277-282 (1985)] and the concentration of creatinine in the supernatant was measured with creatinine test WAKO (Wako Pure Chem.) The amount of urinary hydroxyproline excretion was expressed by the molar ratio of the amount of hydroxyproline to the amount of creatinine. The rate of inhibition on increase of the amount of urinary hydroxyproline excretion in ovariectomized rats treated with the test compound compared to that of the control group was calculated using the following equation. […]

[1] = system: calvaria (PTH enhanced bone); test: Inhibitory effect on bone absorption (calcium liberation from PTH enhanced cultured calvaria); format: cell-based, newborn dd mouse; settings: mouse calvaria culture, PTH 1 x 10^-8M, 96 hours, calcium in the culture; test compound 3 x 10^-6M, 1 x 10^-5M, 3 x 10^-5M
Description: Test Example 1: Inhibitory effect on bone absorption
The calvaria was excised from a newborn dd mouse (5 to 6 days old) under sterile conditions. The calvaria was washed with a modified Dulbecco phosphate buffer physiological saline solution containing neither calcium nor magnesium (a product of Gibco Oriental), and divided into two parts along the center suture. A half of the calvaria was cultivated in a modified Dulbecco Eagle medium (1.5 ml) (a product of Gibco Oriental) containing 2.5% fetal calf serum and 15% equine serum which had been inactivated by heating at 56°C for 20 minutes. The test compound was dissolved in dimethyl sulfoxide and 10 µl of the resulting solution was added to the culture medium to give the final concentrations of 3 x 10^-6M, 1 x 10^-5M, and 3 x 10^-5M. PTH (parathyroid hormone) was dissolved in a 0.15 M saline solution (pH 3) and 3 µl of the resulting solution was added to the culture medium to give the final concentration of 1 x 10^-8M. The culturing was carried out under the condition of 95% air and 5% carbon dioxide and at a temperature of 37°C for 96 hours. At 48 hours after the start of the culturing, the culture medium was renewed and the test compound and PTH treated as defined above were added thereto. For examining the effect of the test compound on calcium liberation (bone absorption) from the PTH enhanced bone, a control group, a group using PTH (1 x 10^-8M), and a group using both the test compound (3 x 10^-6M, 1 x 10^-5M, 3 x 10^-5M) and PTH were prepared. The amount of the bone absorption was determined by measuring the amount of calcium accumulated in the culture as collected after 96 hours of culturing. The total calcium concentration in the culture was measured with Calcium C Test Wako. The inhibition rate was calculated using the following equation and the result was shown in terms of 50% inhibitory concentration (IC50). Inhibition of bone absorption from PTH enhanced bone Inhibition rate (%) = [(CP - CD )/(CP - C0 )] x 100 [formula] • C0 : The total calcium concentration in the culture containing neither the test compound nor PTH. • CP : The total calcium concentration in the culture treated with only PTH. • CD : The total calcium concentration in the culture treated with both the test compound and PTH.

Compound	IC50 [1] [µM]	Inhibition rate of increase of the amount of urinary hydroxyproline excretion (ovariectomized rats) [%]
O=S(=O)(c1c(C(c2ccc(O)cc2)c2ccc(O)cc2)c2ccccc2n1CCN1CCOCC1)N1CCN(c2ccccc2Cl)CC1 [Compound 16, 3-[Bis(4-hydroxyphenyl)methyl]-2-[4-(2-chlorophenyl)piperazinylsulfonyl]-1-(2-morpholinoethyl)indole]	–	32
O=S(=O)(c1[nH]c2ccccc2c1C(c1ccc(O)cc1)c1ccc(O)cc1)N1CCN(c2ccccc2Cl)CC1 [Compound 14, 3-[Bis(4-hydroxyphenyl)methyl]-2-[4-(2-chlorophenyl)piperazinylsulfonyl]indole]	14.1	–

More lines, in order of falling IC50 [1], values ahead:

IC50 [1] [µM]	Compound	Inhibition rate of increase of the amount of urinary hydroxyproline excretion (ovariectomized rats) [%]
13.7	CN(C)CCn1c(S(=O)(=O)N2CCCCC2)c(C(c2ccc(O)cc2)c2ccc(O)cc2)c2ccccc21 [Compound 17, 3-[Bis(4-hydroxyphenyl)methyl]-1-(2-dimethylaminoethyl)-2-(piperidinosulfonyl)indole]	–
13.7	CN(C)CCn1c(S(=O)(=O)N2CCCCC2)c(C(c2ccccc2)c2ccccc2)c2ccccc21 [Compound 24, 1-(2-Dimethylaminoethyl)-3-(diphenylmethyl)-2-(piperidinosulfonyl)indole]	100
13.3	CCN(CC)S(=O)(=O)c1c(C(c2ccc(O)cc2)c2ccc(O)cc2)c2ccccc2n1CCN(C)C [Compound 18, N,N-Diethyl-3-[bis(4-hydroxyphenyl)methyl]-1-(2-dimethylaminoethyl)indole-2-sulfonamide]	22
